Broadly, the inhibition is the change of the read-out against control, counted positive when it falls.

Active and inactive are the calls of the source. The calls are words filed in the database; no cut-off is given here.

In assay [1] the target is T1, Eukaryotic elongation factor 2 kinase (Homo sapiens) (UniProt O00418).
T1 sequence (whole entry): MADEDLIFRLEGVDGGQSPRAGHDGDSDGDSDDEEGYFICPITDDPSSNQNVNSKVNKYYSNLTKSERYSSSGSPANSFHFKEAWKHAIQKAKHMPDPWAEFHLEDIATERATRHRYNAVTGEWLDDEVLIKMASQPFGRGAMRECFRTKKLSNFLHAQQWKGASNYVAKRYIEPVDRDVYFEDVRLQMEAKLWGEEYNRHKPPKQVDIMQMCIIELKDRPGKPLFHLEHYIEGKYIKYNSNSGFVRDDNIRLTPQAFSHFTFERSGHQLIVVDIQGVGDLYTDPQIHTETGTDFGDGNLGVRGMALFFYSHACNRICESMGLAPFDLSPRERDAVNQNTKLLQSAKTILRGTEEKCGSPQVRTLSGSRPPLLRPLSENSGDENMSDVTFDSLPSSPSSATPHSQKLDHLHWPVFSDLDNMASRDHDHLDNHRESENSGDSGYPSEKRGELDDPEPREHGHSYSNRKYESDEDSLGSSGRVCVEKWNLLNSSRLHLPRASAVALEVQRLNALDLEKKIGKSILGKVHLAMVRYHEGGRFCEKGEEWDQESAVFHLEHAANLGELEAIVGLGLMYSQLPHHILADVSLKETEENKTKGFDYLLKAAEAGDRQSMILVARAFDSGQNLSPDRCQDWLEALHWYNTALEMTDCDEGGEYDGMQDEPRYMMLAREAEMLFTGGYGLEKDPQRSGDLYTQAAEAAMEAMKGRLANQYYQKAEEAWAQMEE
Put plainly: Inhibition of eEF2K ATP labeling site harbouring YIKYNSNSGFVR in human A-375 cells at 0.5 uM by KiNativ Profiling analysis relative to control. The format is cell-based.

For assay [2], the target named is Tyrosine-protein kinase JAK1 (Homo sapiens) (UniProt P23458). Put plainly: Inhibition of JAK1 domain ACT labeling site in human Huh-7 cell lysate at 1 uM by KiNativ Profiling analysis relative to control. The class given is subcellular.
Chain of Tyrosine-protein kinase JAK1 (Homo sapiens) (P23458 whole entry, the tested form may be a part): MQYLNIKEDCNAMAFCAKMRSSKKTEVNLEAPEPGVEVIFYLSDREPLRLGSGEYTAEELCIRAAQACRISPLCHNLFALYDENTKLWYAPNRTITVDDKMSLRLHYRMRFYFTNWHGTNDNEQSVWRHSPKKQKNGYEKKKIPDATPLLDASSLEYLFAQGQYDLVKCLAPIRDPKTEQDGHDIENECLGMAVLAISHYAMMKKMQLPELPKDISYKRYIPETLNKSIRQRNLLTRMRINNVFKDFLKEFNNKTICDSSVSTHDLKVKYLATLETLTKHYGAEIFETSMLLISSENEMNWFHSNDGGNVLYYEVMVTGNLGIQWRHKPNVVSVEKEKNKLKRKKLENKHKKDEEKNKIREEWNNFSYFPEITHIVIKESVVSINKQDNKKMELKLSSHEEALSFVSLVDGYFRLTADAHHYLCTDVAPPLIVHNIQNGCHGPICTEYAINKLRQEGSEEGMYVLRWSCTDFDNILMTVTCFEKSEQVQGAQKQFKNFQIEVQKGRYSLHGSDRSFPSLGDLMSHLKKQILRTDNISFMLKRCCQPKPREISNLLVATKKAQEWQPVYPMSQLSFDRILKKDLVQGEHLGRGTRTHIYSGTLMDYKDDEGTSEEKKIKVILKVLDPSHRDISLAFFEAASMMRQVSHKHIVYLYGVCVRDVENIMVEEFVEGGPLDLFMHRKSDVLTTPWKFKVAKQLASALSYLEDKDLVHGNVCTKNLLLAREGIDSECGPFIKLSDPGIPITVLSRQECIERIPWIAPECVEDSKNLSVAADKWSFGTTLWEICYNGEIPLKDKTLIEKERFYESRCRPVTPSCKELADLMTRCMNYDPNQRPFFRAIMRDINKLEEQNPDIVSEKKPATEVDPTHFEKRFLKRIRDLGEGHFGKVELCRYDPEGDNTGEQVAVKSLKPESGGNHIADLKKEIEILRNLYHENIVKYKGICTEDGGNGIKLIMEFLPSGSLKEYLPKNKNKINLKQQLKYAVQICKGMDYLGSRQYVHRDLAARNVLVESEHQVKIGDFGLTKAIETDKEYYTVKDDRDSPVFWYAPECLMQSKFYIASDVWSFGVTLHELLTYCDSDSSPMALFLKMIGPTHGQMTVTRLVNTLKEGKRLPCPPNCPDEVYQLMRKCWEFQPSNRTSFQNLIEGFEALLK
The target of assay [3] is Serine/threonine-protein kinase RIO2 (Homo sapiens) (UniProt Q9BVS4). Nature of the assay: Inhibition of RIOK2 (unknown origin) at 10 uM by Ambit Kinomescan binding assay.
Chain of Serine/threonine-protein kinase RIO2 (Homo sapiens) (Q9BVS4 whole entry, looked up): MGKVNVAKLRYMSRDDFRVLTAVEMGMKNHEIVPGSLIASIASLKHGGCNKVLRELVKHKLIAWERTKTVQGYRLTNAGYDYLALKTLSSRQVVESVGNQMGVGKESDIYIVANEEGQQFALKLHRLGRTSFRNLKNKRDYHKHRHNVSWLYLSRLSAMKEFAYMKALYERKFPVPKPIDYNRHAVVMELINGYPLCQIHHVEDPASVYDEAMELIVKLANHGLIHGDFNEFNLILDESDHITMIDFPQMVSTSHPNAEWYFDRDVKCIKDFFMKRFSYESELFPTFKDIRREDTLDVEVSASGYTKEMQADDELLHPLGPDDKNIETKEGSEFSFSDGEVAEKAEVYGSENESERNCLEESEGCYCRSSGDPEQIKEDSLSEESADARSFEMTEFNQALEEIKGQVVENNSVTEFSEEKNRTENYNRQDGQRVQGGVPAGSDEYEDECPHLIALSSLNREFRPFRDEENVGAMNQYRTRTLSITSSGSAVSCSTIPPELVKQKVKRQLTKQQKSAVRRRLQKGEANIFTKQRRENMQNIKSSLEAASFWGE
For assay [4], the target named is T2, Inhibitor of nuclear factor kappa-B kinase subunit alpha (Homo sapiens) (UniProt O15111).
T2 sequence (whole entry): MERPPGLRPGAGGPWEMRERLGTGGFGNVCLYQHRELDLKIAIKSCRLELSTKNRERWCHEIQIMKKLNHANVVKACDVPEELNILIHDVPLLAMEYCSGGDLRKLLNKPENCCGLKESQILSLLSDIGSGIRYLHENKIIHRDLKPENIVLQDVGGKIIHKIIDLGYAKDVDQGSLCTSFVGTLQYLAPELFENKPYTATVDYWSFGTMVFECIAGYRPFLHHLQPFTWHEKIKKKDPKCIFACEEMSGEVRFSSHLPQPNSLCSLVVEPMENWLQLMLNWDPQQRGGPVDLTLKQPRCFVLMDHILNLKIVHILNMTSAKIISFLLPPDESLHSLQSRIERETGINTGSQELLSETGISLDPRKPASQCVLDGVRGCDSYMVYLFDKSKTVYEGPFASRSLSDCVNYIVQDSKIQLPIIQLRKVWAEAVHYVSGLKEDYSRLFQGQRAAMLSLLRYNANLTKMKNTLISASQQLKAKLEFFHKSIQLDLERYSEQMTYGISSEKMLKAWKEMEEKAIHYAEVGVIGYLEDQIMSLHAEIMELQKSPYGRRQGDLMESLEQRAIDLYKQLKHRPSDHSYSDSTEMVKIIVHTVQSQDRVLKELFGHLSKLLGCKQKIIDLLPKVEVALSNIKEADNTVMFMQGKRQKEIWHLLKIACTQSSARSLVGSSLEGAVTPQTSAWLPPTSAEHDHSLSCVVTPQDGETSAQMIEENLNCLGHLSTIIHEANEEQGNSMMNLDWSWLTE
Nature of the assay: Inhibition of IKKa Lys2 labeling site in human A-375 cells at 5 uM by KiNativ Profiling analysis relative to control. The format is cell-based.

The target of assay [5] is T3, Aurora kinase A (Homo sapiens) (UniProt O14965).
T3 sequence (whole entry): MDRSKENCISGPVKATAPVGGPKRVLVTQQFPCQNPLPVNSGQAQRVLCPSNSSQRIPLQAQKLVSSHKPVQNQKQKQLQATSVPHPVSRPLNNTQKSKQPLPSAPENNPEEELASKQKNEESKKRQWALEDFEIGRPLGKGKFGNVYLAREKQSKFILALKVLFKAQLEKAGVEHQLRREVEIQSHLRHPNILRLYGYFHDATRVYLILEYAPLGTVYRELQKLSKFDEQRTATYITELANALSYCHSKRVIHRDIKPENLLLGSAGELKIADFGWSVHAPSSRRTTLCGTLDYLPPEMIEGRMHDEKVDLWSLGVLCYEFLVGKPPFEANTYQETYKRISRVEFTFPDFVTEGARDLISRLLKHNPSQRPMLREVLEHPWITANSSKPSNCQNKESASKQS
Nature of the assay: Inhibition of AurA K2 labeling site harbouring DIKPENLLLGSAGELK in human Huh-7 cells at 10 uM by KiNativ Profiling analysis relative to control. The format is cell-based.

Take `CCN1CCN(Cc2ccc(NC(=O)c3ccc(C)c(/C=C/c4cnc5[nH]ccc5c4OC)c3)cc2C(F)(F)F)CC1`: in assay [1], the inhibition is -8.5%. For the compound `CNc1cc(Oc2cc(C(=O)Nc3cc(-n4cnc(C)c4)cc(C(F)(F)F)c3)ccc2C)ncn1`, the inhibition in assay [2] came to 4.9%. Regarding `CCN1CCN(Cc2ccc(NC(=O)c3ccc(C)c(Oc4ccnc5[nH]ccc45)c3)cc2C(F)(F)F)CC1`, the inhibition entry in assay [3] is “inactive”. Further, the inhibition amounted to 72.4% in assay [4] and 9.4% in assay [5].

The values are drawn from ChEMBL document CHEMBL5696442, “Discovery of type II inhibitors of TGFβ-activated kinase 1 (TAK1) and mitogen-activated protein kinase kinase kinase kinase 2 (MAP4K2)” (J Med Chem, 2015).
